Assay results reported in patent US20260234185A1, “ANTI-AGING COMPOSITION COMPRISING PEPTIDE COMPLEX AS ACTIVE INGREDIENT” (priority 2023, published 2026).
Where no end group is shown, it is not given here.

How the values were obtained:
sirtuin 1 (SIRT1) gene = assay: RT-PCR of SIRT1 gene expression in palmitate-treated adipocytes; format: cell-based; conditions: 3T3-L1 adipocytes, 25 μM palmitate 30 minutes; 0.2, 2, 20 μg/mL; 24 hours; RT-PCR vs palmitate control (PA) (FIGS. 4a, 4b)
Description: (§1) An experiment was performed to determine whether the peptide complex prepared in Preparation Example 1 increases the gene expression of longevity-related genes, FGF21, SIRT1, AMPK, and FOXO3A, in adipocytes in a state of insulin metabolic disorder induced by palmitate treatment.
(§2) When 3T3-L1 preadipocytes reached 80% confluence, they were seeded at 5×10^3 cells/well in a 96-well plate and used for the experiment. Two days after reaching confluence, the medium was replaced with differentiation-inducing medium to induce the differentiation into adipocytes, and two days after the induction, the medium was cultured for 2 days in a medium containing 10% FBS and 10 μg/mL insulin, and then the medium was replaced with 10% FBS every 2 days until their differentiation into adipocytes. After differentiation was complete, the medium was replaced with glucose-free medium, cultured for 16 hours, and then starvation was induced by culturing for 40 minutes in 100 μL KPPH buffer containing 2% BSA. After treating with 25 μM palmitate for 30 minutes, the peptide complexes were treated at concentrations of 0.2 μg/mL, 2 μg/mL, and 20 μg/mL, cultured for 24 hours, and RNA was extracted after 24 hours and RT-PCR was performed. […] Subsequently, the mRNA expression pattern was determined by agarose gel electrophoresis.

FOXO3A gene = assay: RT-PCR of FOXO3A gene expression in palmitate-treated adipocytes; format: cell-based; conditions: 3T3-L1 adipocytes, 25 μM palmitate 30 minutes; 0.2, 2, 20 μg/mL; 24 hours; RT-PCR vs palmitate control (PA) (FIGS. 4a, 4b)
Description: as §1, §2

SIRT1 [1] = assay: Western blot of SIRT1 protein expression in myocytes; format: cell-based, mouse; conditions: differentiated C2C12 myocytes; 0.2, 2, 20 μg/mL; 24 hours; Western blot (FIGS. 6a, 6b)
Description: An experiment was performed to determine whether the peptide complex increases the phosphorylation of AMPK and the expression of SIRT1 and FGF21 proteins in myocytes.
(§3) C2C12 cells, mouse-derived myoblasts, were cultured in DMEM medium containing 1% P/S and 2% BCS. When the cell confluency reached 70-80%, the cells were seeded in a 6-well culture plate. When the cell confluency in the 6-well culture plate reached 100%, the medium was replaced with differentiation medium (1% P/S, 2% horse serum), and thereafter, the differentiation medium (1% P/S, 2% horse serum) was replaced once every two days. Five days after the first replacement, the peptide complex was treated at concentrations of 0.2 μg/mL, 2 μg/mL, and 20 μg/mL and cultured for 24 hours. The group untreated with the peptide complex was used as the control. After dissolving by adding dissolution buffer thereto, the proteins obtained were centrifuged at 4° C. and 12,000 rpm for 30 minutes, and quantified using a BCA kit. The proteins were subjected to sodium dodecyl sulfate-polyacrylamide gel electrophoresis (SDS-PAGE) and then electrotransferred onto a membrane. The membrane with the proteins attached was blocked by treating it with 5% skim milk, and then the primary antibody was reacted overnight at 4° C. […]

SIRT1 [2] = assay: Western blot of SIRT1 expression in myocytes with palmitate-induced insulin metabolic disorder; format: cell-based, mouse; conditions: C2C12 myocytes in insulin metabolic disorder induced by palmitate treatment; 0.2, 2, 20 μg/mL; 24 hours; Western blot (FIGS. 7a, 7b)
Description: An experiment was performed to determine whether the peptide complex increases AMPK phosphorylation and SIRT1 expression levels in myocytes in a state of insulin metabolic disorder induced by palmitate treatment.
as §3

peptide complex: prepared by mixing equal amounts of the peptide of SEQ ID NO: 1 (LKTRN) and the peptide of SEQ ID NO: 2 (KGSATGWMA) (also: mixture of two peptides)
increased: expression of sirtuin 1 (SIRT1) gene (sirtuin 1 (SIRT1) gene) | expression of FOXO3A gene (FOXO3A gene) | expression level of SIRT1 protein (SIRT1 [1]) | expression level of SIRT1 protein (SIRT1 [2])
